According to patent publication US6440958B1, “Acrylic and propionic acid compounds, intermediates, processes, compositions, and methods” (Eli Lilly and Company, priority 1995, dated 2002):

How the values were obtained:
[1] = system: ovariectomized (OVX) rats; assay: Uterine wet weight in ovariectomized rat post-menopausal model; assay type: in vivo, Sprague Dawley rats; conditions: for Uterine weight (% increase vs. OVX): oral, daily for 4 days, OVX rats
Protocol: (§1) In the examples illustrating the methods, a post-menopausal model was used in which effects of different treatments upon circulating lipids were determined.
(§2) Seventy-five day old female Sprague Dawley rats (weight range of 200 to 225g) were obtained from Charles River Laboratories (Portage, Mich.). The animals were either bilaterally ovariectomized (OVX) or exposed to a Sham surgical procedure at Charles River Laboratories, and then shipped after one week. Upon arrival, they were housed in metal hanging cages in groups of 3 or 4 per cage and had ad libitum access to food (calcium content approximately 0.5%) and water for one week. Room temperature was maintained at 22.2°±1.7° C. with a minimum relative humidity of 40%. The photoperiod in the room was 12 hours light and 12 hours dark.
(§3) Dosing Regimen Tissue Collection. After a one week acclimation period (therefore, two weeks post-OVX) daily dosing with test compound was initiated. 17α-ethynyl estradiol or the test compound were given orally, unless otherwise stated, as a suspension in 1% carboxymethylcellulose or dissolved or suspended in 20% cyclodextrin. Animals were dosed daily for 4 days. Following the dosing regimen, animals were weighed and anesthetized with a ketamine: Xylazine (2:1, V:V) mixture and a blood sample was collected by cardiac puncture. The animals were then sacrificed by asphyxiation with CO2, the uterus was removed through a midline incision, and a wet uterine weight was determined.

[2] = system: ovariectomized (OVX) rats; assay: Uterine eosinophil peroxidase (EPO) assay; assay type: in vivo, Sprague Dawley rats; set-up: unit not given here; conditions: oral, daily for 4 days
Excerpt: as §2, §3
Uterine Eosinoihil Peroxidase (EPO) Assay. Uteri were kept at 4° C. until time of enzymatic analysis. The uteri were then homogenized in 50 volumes of 50 mM Tris buffer (pH -8.0) containing 0.005% Triton X-100. Upon addition of 0.01% hydrogen peroxide and 10 mM O-phenylenediamine (final concentrations) in Tris buffer, increase in absorbance was monitored for one minute at 450 nm. The presence of eosonophils in the uterus is an indication of estrogenic activity of a compound. The maximal velocity of a 15 second interval was determined over the initial, linear portion of the reaction curve.

[3] = system: ovariectomized (OVX) rats; assay: Serum cholesterol in ovariectomized rat post-menopausal model; assay type: in vivo, Sprague Dawley rats; conditions: oral, daily for 4 days
Protocol: as §1, §2, §3
Cholesterol Analysis. Blood samples were allowed to clot at room temperature for 2 hours, and serum was obtained following centrifugation for 10 minutes at 3000 rpm. Serum cholesterol was determined using a Boehringer Mannheim Diagnostics high performance cholesterol assay. Briefly the cholesterol was oxidized to cholest-4-en-3-one and hydrogen peroxide. The hydrogen peroxide was then reacted with phenol and 4-aminophenazone in the presence of peroxidase to produce a p-quinone imine dye, which was read spectrophotometrically at 500 nm. Cholesterol concentration was then calculated against a standard curve. The entire assay was automated using a Biomek Automated Workstation.

[4] = system: ovariectomized (OVX) rats; assay: Uterine eosinophil peroxidase (EPO) assay; assay type: in vivo, Sprague Dawley rats
[5] = dose 0.1 mg/kg, test compounds in CDX (cyclodextrin) susp. or soln.
[6] = dose 0.1 mg/kg, test compounds in CDX susp. or soln.
[7] = dose 1 mg/kg, CDX susp. or soln.
[8] = dose 10 mg/kg, CDX susp. or soln.

Uterine weight (% increase vs. OVX) [1, 5]	Uterine EPO (V. max) [2, 6]	Uterine weight (% increase vs. OVX) [1, 7]	Uterine weight (% increase vs. OVX) [1, 8]	Uterine EPO (V. max) [2, 7]	Uterine EPO (V. max) [2, 8]	melting point	SMILES	Effect on uterus / uterine weight (in words) ([1]; orally administered at 0.1 mg/kg/day, vs. ovariectomized test animals)	Serum Cholesterol (% decrease vs. OVX) [3, 6]	Eosinophil infiltration into the uterus (stromal layer), in words [4]	Serum Cholesterol (% decrease vs. OVX) [3, 7]	Serum Cholesterol (% decrease vs. OVX) [3, 8]
201.3%	130.5						C#C[C@]1(O)CC[C@H]2[C@@H]3CCc4cc(O)ccc4[C@H]3CC[C@@]21C [EE2, 17α-ethynyl estradiol, reference compound]	uterine weight was substantially greater than the uterine weight of ovariectomized test animals	68.6%	substantial, expected increase in eosinophil infiltration		
25.0%	2.1	23.3%	119.9%	2.1	35.1	204 to 207 °C	COc1ccc(-c2sc3cc(OC)ccc3c2C(=O)c2ccc(/C=C/C(=O)O)cc2)cc1 [Example 2]		−16.6%		−37.3%	73.2%
23.9%	0.9	19.7%	97.3%	1.2	8.4		O=C(O)/C=C/c1ccc(C(=O)c2c(-c3ccc(O)cc3)sc3cc(O)ccc23)cc1 [Example 3, (E)-6-hydroxy-3-[4-(2-carboxyvinyl)benzoyl]-2-(4-hydroxyphenyl)benzo[b]thiophene]		−15.1%		−26.6%	57.7%
−45.9%	0.0	−37.0%	29.3%	0.0	1.2	244 to 248 °C	O=C(O)CCc1ccc(C(=O)c2c(-c3ccc(O)cc3)sc3cc(O)ccc23)cc1 [Example 4, 6-hydroxy-3-[4-(2-carboxyethyl)benzoyl]-2-(4-hydroxyphenyl)benzo[b]thiophene]		−46.2%		−28.8%	16.5%
